# Data reported in patent US8969584B2, “PIM kinase inhibitors and preparation methods and use in medicinal manufacture thereof” (Jikai Biosciences, Inc., priority 2011, dated 2015).
# Biological target: T1, PIM-1 kinase (Homo sapiens, UniProt P11309)
# T1 construct: purchased Millipore 14-573
# Test: PIM Kinase Activity Assay-IMAP Fluorescence Polarization Assay (PIM-1)
# Assay type: biochemical
# Conditions: 3 μM concentration
# Method: In the present invention, the PIM activities of the compounds were tested by BioDuro (Building E, No. 29 Life Science Park Road, Changping District, Beijing, 102206, P.R. China). The method used for testing is PIM Kinase Activity Assay-IMAP Fluorescence Polarization Assay PIM Kinase Activity Assay-IMAP Fluorescence Polarization Assay 1. Principle PIM kinases are serine/threonine protein kinases, and they can phosphorylate 5-FAM labeled small peptide substrates. Fluorescence polarization is less for non-phosphorylated substrates since that can not bind to the binder (metal binding nanoparticles). On the other hand, fluorescence polarization is more for phosphorylated substrates since that can bind to the binder. The level of 5-FAM labeled small peptide substrates phosphorylation reflects the activities of PIM kinase. By measuring their ability of inhibiting PIM kinase of the compounds of the present invention, their activities of inhibiting PIM kinases can be determined 2. Instrument EnVision (PerkinElmer, Waltham, Mass.) 3. Reagents and 384 well plates PIM1 (Millipore Cat. #14-573) (Millipore Corporation, Billerica, Mass.) PIM2 (Millipore Cat. #14-607) (Millipore Corporation, Billerica, Mass.) 5-FAM labeled peptide (5-FAM-RSRHSSYPAGT, AnaSpec Cat. #63801) (AnaSpec Inc., Fremont, Calif.) IMAP FP Screening Express kit (IMAP FP Screening kit) (Molecular Devices Cat. #R8127) (Molecular Devices, Sunnyvale, Calif.) IMAP Progressive binding reagent IMAP Progressive binding buffer A (5×) IMAP Progressive binding buffer B (5×) 384-well black plate (Corning Cat. #3573) (Corning, Midland Mich.) 4. Assay Buffer
# a) 10 mM compound stock solution is diluted to appropriate concentration with 100% DMSO, then diluted 10 fold to targeted concentration with test butter to keep DMSO concentration at 10%
# 1 ul of compound solution and 4 ul of enzyme (PIM-1 final concentration 0.025 nM, PIM-2 concentration 3 nM) is incubated at 23° C. for 15 min, 2.5 ul ATP (for PIM-1 and PIM-2, the final ATP concentrations are 30 uM and 5 uM respectively) 2.5 ul 5-FAM labeled peptide (final concentration 100 nM) was added to start the reaction. The reaction is run at 23° C. for 60 min DMSO is used in place of compound stock solution as maximum reference and assay buffer is used in place of enzyme as minimum reference. c) add 30 ul IMAP binding reagent (containing 75% IMAP Buffer A, 25% IMAP Buffer B, 1/600 dilution of beads) to stop the reaction, incubated at room temperature for 60 min d) Measure fluorescence polarization, excitation wavelength: 485 nm, emission wavelength 530 nm. 6. Data process IC50 values were calculated using Graphpad Prism®.
# T1 sequence (P11309 whole entry): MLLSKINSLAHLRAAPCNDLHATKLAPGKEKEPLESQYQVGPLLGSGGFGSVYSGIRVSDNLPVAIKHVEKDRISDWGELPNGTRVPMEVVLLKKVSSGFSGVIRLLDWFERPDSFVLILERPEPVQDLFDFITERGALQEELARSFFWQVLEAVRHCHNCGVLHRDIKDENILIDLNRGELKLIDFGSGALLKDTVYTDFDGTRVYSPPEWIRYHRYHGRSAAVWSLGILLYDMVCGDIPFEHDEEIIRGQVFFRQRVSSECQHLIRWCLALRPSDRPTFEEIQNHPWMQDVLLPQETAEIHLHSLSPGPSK
row,inhibition at 3 µM,SMILES
1,20 to 50%,"O=C(Nc1cnsc1N1CCNCC1)c1csc(N2CCOCC2)n1 [Compound 36, 2-morpholino-N-(5-(piperazin-1-yl)isothiazol-4-yl)thiazole-4-carboxamide]"
2,20 to 50%,"CC(=O)Nc1nc(C(=O)Nc2cnsc2N2CCNCC2)cs1 [Compound 39, 2-acetamido-N-(5-(piperazin-1-yl)isothiazol-4-yl)thiazole-4-carboxamide]"
3,20 to 50%,"O=C(Nc1cnsc1N1CCNCC1)c1csc(C2COc3ccccc3O2)n1 (stereo not shown) [Compound 40, 2-(2,3-dihydrobenzo[b][1,4]dioxin-2-yl)-N-(5-(piperazin-1-yl)isothiazol-4-yl)thiazole-4-carboxamide]"

# Continued, compound first:
row,SMILES,inhibition at 3 µM
1,"CC(C)(C)OC(=O)N1CCC(c2nc(C(=O)Nc3cnsc3N3CCOCC3)cs2)CC1 [Compound 25, tert-butyl 4-(4-((5-morpholinoisothiazol-4-yl)carbamoyl)thiazol-2-yl)piperidine-1-carboxylate]",20 to 50%
2,"O=C(Nc1cnsc1N1CCOCC1)c1csc(C2CCNCC2)n1 [Compound 26, N-(5-morpholinoisothiazol-4-yl)-2-(piperidin-4-yl)thiazole-4-carboxamide]",20 to 50%
3,"O=C(Nc1cnsc1N1CCOCC1)c1csc(C2COc3ccccc3O2)n1 (stereo not shown) [Compound 28, 2-(2,3-dihydrobenzo[b][1,4]dioxin-2-yl)-N-(5-morpholinoisothiazol-4-yl)thiazole-4-carboxamide]",20 to 50%
4,"Cc1cc(C(=O)Nc2cnsc2N2CCNCC2)nn1-c1ccccc1F [Compound 41, 1-(2-fluorophenyl)-5-methyl-N-(5-(piperazin-1-yl)isothiazol-4-yl)-1H-pyrazole-3-carboxamide]",20 to 50%
5,"O=C(Nc1cnsc1N1CCNCC1)c1cc(-c2ccccc2F)n[nH]1 [Compound 42, 3-(2-fluorophenyl)-N-(5-(piperazin-1-yl)isothiazol-4-yl)-1H-pyrazole-5-carboxamide]",20 to 50%
6,"O=C(Nc1cnsc1N1CCNCC1)c1coc(-c2ccccc2)n1 [Compound 43, 2-phenyl-N-(5-(piperazin-1-yl)isothiazol-4-yl)oxazole-4-carboxamide]",20 to 50%
7,"O=C(Nc1cnsc1N1CCc2c(O)cccc2C1)c1cccc(-c2c(F)cccc2F)n1 [Compound 52, 6-(2,6-difluorophenyl)-N-(5-(5-hydroxy-3,4-dihydroisoquinolin-2(1H)-yl)isothiazol-4-yl)picolinamide]",20 to 50%
